According to article PMC8672774, “Discovery of cell active macrocyclic peptides with on-target inhibition of KRAS signaling” (Chemical Science, 2021):

Experiments:
[1] = tested on: MAPK and PI3K signaling in SK-MEL-28 cells (BRAF^V600E); assay: Western blot of MAPK and PI3K signaling in SK-MEL-28 cells; assay type: cell-based
Experimental: (§1) Western Blotting: Cells were seeded in 24-well poly-D-lysine coated plates and treated with the indicated peptides the next day. Following incubation, 100 μl of 1X Bolt™ LDS sample buffer supplemented with NuPAGE® sample reducing agent was added. Wells were scrapped using wide orifice
bath sonicator (QSonica).
(§2) onto nitrocellulose membranes using the Trans-Blot® Turbo™ semi-dry sy s te m ( Bio -rad), and blocked for 1 hour at room temperature with tris-buffered saline (TBS) Odyssey blocking buffer (Li- Cor). Blots were probed with the appropriate primary antibodies overnight at 4°C in Odyssey blocking buffer supplemented with 0.1% Tween-20, followed by the secondary antibodies IRDye® 680RD donkey anti-mouse IgG or IRDye® 800CW donkey anti-rabbit IgG (Li- Cor) for 1 hour at room temperature.
(§3) Fluorescent signals were imaged and quantified using Odyssey® CLx. Primary antibodies used were:

[2] = tested on: MAPK and PI3K signaling in A375 cells (BRAF^V600E); assay: Western blot of MAPK and PI3K signaling in A375 cells; assay type: cell-based
Experimental: as §1
bath sonicator (QSonica).
as §2, §3

[3] = in vitro; settings: human
[4] = tested on: rat mast cells; assay: Ex vivo rat mast cell degranulation and histamine release assay; settings: for rMCD histamine release threshold: lowest concentration at which histamine release was observed, rat peritoneal mast cells, 30 min; for activation of mast cell degranulation (histamine release), in words: ex vivo, rat mast cells
Experimental: The reported rat mast cell degranulation (rMCD) value in Table 4 is a threshold for the lowest concentration at which a two-fold change in histamine release was observed.
In Vitro Rat M ast Cell Degranulation and H istamine Release Ass ess m ent: Peritoneal lavage was isolated
from Wister- Han rats as described in literature. In brief, animals were anesthetized with xylene followed
by an injection of about 10 mL of Tyrode buffer (12 mM NaHCO3, 127 mM NaCl, 5 mM KCl, 0.5 mM
NaH2PO4, 1 mM MgCl2, 5 mM Glucose and 10 mM HEPES, pH 7.4) into the peritoneal cavity. After a
gentle abdomen massage, peritoneal lavage was collected and centrifuged at 350 x g for 5 minutes. Cell
pellets were resuspended in Tyrode buffer with 10% heat inactivated rat serum to reach a final
Freshly isolated rat peritoneal cells were aliquoted to a 96 well tissue-
culture plate (100 µL per well).
peptides for 30 minutes at 37°C. After incubation, the plate was centrifuged at 350 x g for 2 minutes at
room temperature. Supernatant were collected and histamine concentration was measured by ELISA
(Neogen, Lansing, MI) following vendor’s instructions. Amount of histamine in the supernatant was
presented as ng/mL. A detection of histamine release was defined as the histamine concentration in
from 10 vehicle-control treated samples from the same animal). The lowest concentration that a

[5] = tested on: pERK and pAKT in AsPC-1 cells; assay: Western blot of KRAS signaling (pERK, pAKT) in AsPC-1 cells; assay type: cell-based; settings: 1 hour and 16 hour time-points
Experimental: as §1
bath sonicator (QSonica).
as §2, §3
(D14E12) (Cell Signaling Technology, #8 24 2), phospho-IκBα (Ser32) (Cell Signaling Technology, #2 85 9) , IκBα (L35A5) (Cell Signaling Technology, #4 81 4) , NanoLuc (Promega, N7000) and pan-RAS (Sigma,
mM PMSF and Co mplete™ EDTA-free protease inhibitor cocktail (Roche) for 30 min with intermittent

Compound	half-life at 1 µM ([3]; HeLa cell homogenate) [h]	rMCD histamine release threshold [4] [µM]	also measured
Cc1ccc(NC(=O)c2cccc(C(C)(C)C#N)c2)cc1Nc1ccc2ncn(C)c(=O)c2c1 [AZ628, reference compound]			inhibition of MAPK signaling in SK-MEL-28 [1]: inhibited MAPK signaling; inhibition of MAPK signaling in A375 [2]: inhibited MAPK signaling
CC[C@H](C)[C@@H]1NC(=O)[C@H](Cc2ccc(O)cc2)NC(=O)[C@H](CC(C)C)NC(=O)[C@]2(C)CCCN2C(=O)[C@H](NC(=O)[C@H](CCCNC(=N)N)NC(=O)[C@H](CCCNC(=N)N)NC(=O)[C@H](CCCCN=[N+]=[N-])NC(C)=O)CSCSC[C@@H](C(=O)N[C@@H](CCCNC(=N)N)C(=O)N[C@@H](CCCNC(=N)N)C(N)=O)NC(=O)[C@H](C(C)C)NC(=O)[C@@H]2CCCN2C(=O)[C@H](CC(=O)O)NC(=O)[C@H](Cc2ccc(O)cc2)NC(=O)[C@H](CO)NC1=O [Compound 14]	2.37		
CC[C@H](C)[C@@H]1NC(=O)[C@H](Cc2ccc(O)cc2)NC(=O)[C@](C)(CC(C)C)NC(=O)[C@@H]2CCCN2C(=O)[C@H](NC(=O)[C@H](CCCNC(=N)N)NC(=O)[C@H](CCCNC(=N)N)NC(=O)[C@H](CCCCN=[N+]=[N-])NC(C)=O)CSCSC[C@@H](C(=O)N[C@@H](CCCNC(=N)N)C(=O)N[C@@H](CCCNC(=N)N)C(N)=O)NC(=O)[C@H](C(C)C)NC(=O)[C@@H]2CCCN2C(=O)[C@H](CC(=O)O)NC(=O)[C@H](Cc2ccc(O)cc2)NC(=O)[C@H](CO)NC1=O [Compound 15]	1.9		
CC[C@H](C)[C@@H]1NC(=O)[C@](C)(Cc2ccccc2)NC(=O)[C@H](CC(C)C)NC(=O)[C@@H]2CCCN2C(=O)[C@H](NC(=O)[C@H](CCCNC(=N)N)NC(=O)[C@H](CCCNC(=N)N)NC(=O)[C@H](CCCCN=[N+]=[N-])NC(C)=O)CSCSC[C@@H](C(=O)N[C@@H](CCCNC(=N)N)C(=O)N[C@@H](CCCNC(=N)N)C(N)=O)NC(=O)[C@H](C(C)C)NC(=O)[C@@H]2CCCN2C(=O)[C@H](CC(=O)O)NC(=O)[C@H](Cc2ccc(O)cc2)NC(=O)[C@H](CO)NC1=O [Compound 16]	> 6.22		
CC[C@H](C)[C@@H]1NC(=O)[C@H](Cc2ccc(O)cc2)NC(=O)[C@H](CC(C)C)NC(=O)[C@@H]2CCCN2C(=O)[C@H](NC(=O)[C@H](CCCNC(=N)N)NC(=O)[C@H](CCCNC(=N)N)NC(=O)[C@H](CCCCN=[N+]=[N-])NC(C)=O)CSCSC[C@@H](C(=O)N[C@@H](CCCNC(=N)N)C(=O)N[C@@H](CCCNC(=N)N)C(N)=O)NC(=O)[C@H](C(C)C)NC(=O)[C@@H]2CCCN2C(=O)[C@H](CC(=O)O)NC(=O)[C@H](Cc2ccc(O)cc2)NC(=O)[C@](C)(CO)NC1=O [Compound 17]	2.57		
CC[C@H](C)[C@@H]1NC(=O)[C@H](Cc2ccc(O)cc2)NC(=O)[C@H](CC(C)C)NC(=O)[C@@H]2CCCN2C(=O)[C@H](NC(=O)[C@H](CCCNC(=N)N)NC(=O)[C@H](CCCNC(=N)N)NC(=O)[C@H](CCCCN=[N+]=[N-])NC(C)=O)CSCSC[C@@H](C(=O)N[C@@H](CCCNC(=N)N)C(=O)N[C@@H](CCCNC(=N)N)C(N)=O)NC(=O)[C@H](C(C)C)NC(=O)[C@@H]2CCCN2C(=O)[C@H](CC(=O)O)NC(=O)[C@](C)(Cc2ccc(O)cc2)NC(=O)[C@H](CO)NC1=O [Compound 18]	1.18		
CC[C@H](C)[C@@H]1NC(=O)[C@H](Cc2ccc(O)cc2)NC(=O)[C@H](CC(C)C)NC(=O)[C@@H]2CCCN2C(=O)[C@H](NC(=O)[C@H](CCCNC(=N)N)NC(=O)[C@H](CCCNC(=N)N)NC(=O)[C@H](CCCCN=[N+]=[N-])NC(C)=O)CSCSC[C@@H](C(=O)N[C@@H](CCCNC(=N)N)C(=O)N[C@@H](CCCNC(=N)N)C(N)=O)NC(=O)[C@H](C(C)C)NC(=O)[C@@H]2CCCN2C(=O)[C@](C)(CC(=O)O)NC(=O)[C@H](Cc2ccc(O)cc2)NC(=O)[C@H](CO)NC1=O [Compound 19]	0.683		
CC[C@H](C)[C@@H]1NC(=O)[C@H](Cc2ccc(O)cc2)NC(=O)[C@H](CC(C)C)NC(=O)[C@@H]2CCCN2C(=O)[C@H](NC(=O)[C@H](CCCNC(=N)N)NC(=O)[C@H](CCCNC(=N)N)NC(=O)[C@H](CCCCN=[N+]=[N-])NC(C)=O)CSCSC[C@@H](C(=O)N[C@@H](CCCNC(=N)N)C(=O)N[C@@H](CCCNC(=N)N)C(N)=O)NC(=O)[C@H](C(C)C)NC(=O)[C@]2(C)CCCN2C(=O)[C@H](CC(=O)O)NC(=O)[C@H](Cc2ccc(O)cc2)NC(=O)[C@H](CO)NC1=O [Compound 20]	2.23		
CC[C@H](C)[C@@H]1NC(=O)[C@H](Cc2ccc(O)cc2)NC(=O)[C@H](CC(C)C)NC(=O)[C@@H]2CCCN2C(=O)[C@H](NC(=O)[C@H](CCCNC(=N)N)NC(=O)[C@H](CCCNC(=N)N)NC(=O)[C@H](CCCCN=[N+]=[N-])NC(C)=O)CSCSC[C@@](C)(C(=O)N[C@@H](CCCNC(=N)N)C(=O)N[C@@H](CCCNC(=N)N)C(N)=O)NC(=O)[C@H](C(C)C)NC(=O)[C@@H]2CCCN2C(=O)[C@H](CC(=O)O)NC(=O)[C@H](Cc2ccc(O)cc2)NC(=O)[C@H](CO)NC1=O [Compound 22]	2		
CC[C@H](C)[C@@H]1NC(=O)[C@H](Cc2ccc(O)cc2)NC(=O)[C@H](CC(C)C)NC(=O)[C@@H]2CCCN2C(=O)[C@H](NC(=O)[C@H](CCCNC(=N)N)NC(=O)[C@H](CCCNC(=N)N)NC(=O)[C@H](CCCNC(=N)N)NC(=O)[C@H](CCCCN=[N+]=[N-])NC(C)=O)CSCSC[C@@H](C(=O)N[C@@H](CCCNC(=N)N)C(=O)N[C@@H](CCCNC(=N)N)C(=O)N[C@@H](CCCNC(=N)N)C(N)=O)NC(=O)[C@H](C(C)C)NC(=O)[C@@H]2CCCN2C(=O)[C@H](CC(=O)O)NC(=O)[C@H](Cc2ccc(O)cc2)NC(=O)[C@H](CO)NC1=O [Compound 23]		≥0.14	
CC[C@H](C)[C@@H]1NC(=O)[C@H](Cc2ccc(O)cc2)NC(=O)[C@H](CC(C)C)NC(=O)[C@@H]2CCCN2C(=O)[C@H](NC(=O)[C@H](CCCCN=[N+]=[N-])NC(C)=O)CSCSC[C@@H](C(=O)N[C@@H](CCCNC(=N)N)C(N)=O)NC(=O)[C@H](C(C)C)NC(=O)[C@@H]2CCCN2C(=O)[C@H](CC(=O)O)NC(=O)[C@H](Cc2ccc(O)cc2)NC(=O)[C@H](CO)NC1=O [Compound 24]		>100	activation of mast cell degranulation (histamine release), in words [4]: free from this potential liability
CC[C@H](C)[C@@H]1NC(=O)[C@H](Cc2ccc(O)cc2)NC(=O)[C@H](CC(C)C)NC(=O)[C@@H]2CCCN2C(=O)[C@H](NC(=O)[C@H](CCCCN=[N+]=[N-])NC(C)=O)CSCSC[C@@H](C(N)=O)NC(=O)[C@H](C(C)C)NC(=O)[C@@H]2CCCN2C(=O)[C@H](CC(=O)O)NC(=O)[C@H](Cc2ccc(O)cc2)NC(=O)[C@H](CO)NC1=O [Compound 25]		>100	activation of mast cell degranulation (histamine release), in words [4]: free from this potential liability
N#CC(=C(/N)Sc1ccccc1N)/C(C#N)=C(/N)Sc1ccccc1N [Compound U0126, reference compound]			inhibition of MAPK signaling in SK-MEL-28 [1]: inhibited MAPK signaling; inhibition of MAPK signaling in A375 [2]: inhibited MAPK signaling
CC[C@H](C)[C@@H]1NC(=O)[C@H](Cc2ccc(O)cc2)NC(=O)[C@H](CC(C)C)NC(=O)[C@@H]2CCCN2C(=O)[C@H](NC(=O)[C@H](CCCNC(=N)N)NC(=O)[C@H](CCCNC(=N)N)NC(=O)[C@H](CCCCN=[N+]=[N-])NC(C)=O)CSCSC[C@@H](C(=O)N[C@@H](CCCNC(=N)N)C(=O)N[C@@H](CCCNC(=N)N)C(N)=O)NC(=O)[C@H](C(C)C)NC(=O)[C@@H]2CCCN2C(=O)[C@H](CC(=O)O)NC(=O)[C@H](Cc2ccc(O)cc2)NC(=O)[C@H](CO)NC1=O [MP-1687]		≥3.7	half-life at 1 µM ([3]; tissue homogenate): 0.617 h
CC[C@H](C)[C@@H]1NC(=O)[C@H](Cc2ccc(O)cc2)NC(=O)[C@H](CC(C)C)NC(=O)[C@@H]2CCCN2C(=O)[C@H](NC(=O)[C@H](CCCNC(=N)N)NC(=O)[C@H](CCCNC(=N)N)NC(=O)[C@H](CCCNC(=N)N)NC(=O)[C@H](CCCNC(=N)N)NC(=O)[C@H](CCCCN=[N+]=[N-])NC(C)=O)CSCSC[C@@H](C(=O)N[C@@H](CCCNC(=N)N)C(=O)N[C@@H](CCCNC(=N)N)C(=O)N[C@@H](CCCNC(=N)N)C(=O)N[C@@H](CCCNC(=N)N)C(N)=O)NC(=O)[C@H](C(C)C)NC(=O)[C@@H]2CCCN2C(=O)[C@H](CC(=O)O)NC(=O)[C@H](Cc2ccc(O)cc2)NC(=O)[C@H](CO)NC1=O [MP-6483]		≥0.14	inhibition of KRAS signaling (pERK, pAKT) by Western blot [5]: display cell-based inhibition
CC[C@H](C)[C@@H]1NC(=O)[C@H](Cc2ccc(O)cc2)NC(=O)[C@H](CC(C)C)NC(=O)[C@@H]2CCCN2C(=O)[C@H](NC(=O)[C@@H](CCCNC(=N)N)NC(=O)[C@@H](CCCNC(=N)N)NC(=O)[C@@H](CCCNC(=N)N)NC(=O)[C@@H](CCCNC(=N)N)NC(=O)[C@H](CCCCN=[N+]=[N-])NC(C)=O)CSCSC[C@@H](C(=O)N[C@H](CCCNC(=N)N)C(=O)N[C@H](CCCNC(=N)N)C(=O)N[C@H](CCCNC(=N)N)C(=O)N[C@H](CCCNC(=N)N)C(N)=O)NC(=O)[C@H](C(C)C)NC(=O)[C@@H]2CCCN2C(=O)[C@@H](CC(=O)O)NC(=O)[C@H](Cc2ccc(O)cc2)NC(=O)[C@H](CO)NC1=O [MP-9658, Ac-K(N3)-rrrr-cyclo(c(methylene)PLYISYdPVC)-rrrr-NH2]			inhibition of MAPK signaling in SK-MEL-28 [1]: inactive; inhibition of MAPK signaling in A375 [2]: inactive
CC[C@H](C)[C@@H]1NC(=O)[C@H](Cc2ccc(O)cc2)NC(=O)[C@H](CC(C)C)NC(=O)[C@@H]2CCCN2C(=O)[C@H](NC(=O)[C@H](CCCNC(=N)N)NC(=O)[C@H](CCCCN=[N+]=[N-])NC(C)=O)CSCSC[C@@H](C(=O)N[C@@H](CCCNC(=N)N)C(N)=O)NC(=O)[C@H](C(C)C)NC(=O)[C@@H]2CCCN2C(=O)[C@H](CC(=O)O)NC(=O)[C@H](Cc2ccc(O)cc2)NC(=O)[C@H](CO)NC1=O [MP-9903]		>100	activation of mast cell degranulation (histamine release), in words [4]: free from this potential liability
